Data reported in ChEMBL document CHEMBL2429769, “Synthesis and bioconversions of formestane” (J Nat Prod, 2013).

How the values were obtained:
Aromatase = target: T1, Aromatase (Homo sapiens, UniProt P11511)
T1 sequence (P11511 whole entry): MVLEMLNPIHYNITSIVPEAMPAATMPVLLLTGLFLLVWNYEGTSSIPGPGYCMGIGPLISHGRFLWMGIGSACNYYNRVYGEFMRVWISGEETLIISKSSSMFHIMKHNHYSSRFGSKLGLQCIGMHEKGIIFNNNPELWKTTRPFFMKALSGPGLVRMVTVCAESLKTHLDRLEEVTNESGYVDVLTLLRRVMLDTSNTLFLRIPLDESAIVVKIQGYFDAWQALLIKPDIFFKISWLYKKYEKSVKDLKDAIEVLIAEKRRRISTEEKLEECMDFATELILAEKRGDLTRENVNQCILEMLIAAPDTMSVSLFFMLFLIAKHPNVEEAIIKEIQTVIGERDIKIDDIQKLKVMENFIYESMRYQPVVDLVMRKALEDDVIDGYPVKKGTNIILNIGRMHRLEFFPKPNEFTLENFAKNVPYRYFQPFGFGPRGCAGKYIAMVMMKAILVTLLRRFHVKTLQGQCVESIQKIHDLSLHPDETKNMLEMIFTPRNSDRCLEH
Description: Inhibition of aromatase (unknown origin) using dibenzylfluorescein as substrate after 30 mins by fluorescence assay

MCF7 = assay: Cytotoxicity against human MCF7 cells after 72 hrs by SRB assay; format: functional, cell-based; details: MCF7, 72 h

Row | SMILES | IC50 (Aromatase) | IC50 (MCF7)
1 | C[C@]12CC[C@H]3[C@@H](CC[C@@]4(O)[C@@H](O)C(=O)CC[C@]34C)[C@@H]1CCC2=O | 29.1 µM | 15 µM
2 | C[C@]12CC[C@H]3[C@@H](CCC4=C(O)C(=O)CC[C@@]43C)[C@@H]1CC[C@@H]2O | 47 µM | 16.5 µM
3 | C[C@]12C[C@@H](O)[C@H]3[C@@H](CCC4=C(O)C(=O)CC[C@@]43C)[C@@H]1CC[C@@H]2O | 10.9 µM | 12.5 µM
4 | C[C@]12CC[C@@H](O)C(=O)[C@H]1CC[C@@H]1[C@@H]2CC[C@]2(C)[C@@H](O)CC[C@@H]12 [3ALPHA,17BETA-DIHYDROXY-5BETA-ANDROSTAN-4-ONE] | 3.9 µM | 16.4 µM
5 | C[C@]12CCC(=O)C(O)=C1CC[C@@H]1[C@@H]2CC[C@]2(C)C(=O)CC[C@@H]12 [FORMESTANE] | 58.6 µM | 20 µM
6 | CC[C@]1(O)C[C@@H]2CN(CCc3c([nH]c4ccccc34)[C@@](C(=O)OC)(c3cc4c(cc3OC)N(C)[C@H]3[C@@](O)(C(=O)OC)[C@H](OC(C)=O)[C@]5(CC)C=CCN6CC[C@]43[C@@H]65)C2)C1 [VINBLASTINE] | – | 0.0109 µM
